Measured values reported in PubChem BioAssay (NCI).
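In this assay, cells in 96-well plates receive the compound at five concentrations for 48 hours. Endpoints are linearly interpolated between the surrounding concentrations. GI50 is the concentration that inhibits growth by half. Definition used: TGI = concentration required for complete inhibition of growth.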

Tests used:
Experiment in all cases: NCI-60 cell line screen, 48 h
[1] = tested on: UACC-257 melanoma
[2] = tested on: HOP-62 NSCLC
[3] = tested on: CAKI-1 renal
[4] = tested on: A498 renal
[5] = tested on: A549 NSCLC
[6] = tested on: COLO 205 colon
[7] = tested on: UO-31 renal
[8] = tested on: OVCAR-5 ovarian
[9] = tested on: K-562 leukemia
[10] = tested on: NCI-H226 lung

SMILES | GI50 [1] [µM] | TGI [1] [µM] | GI50 [2] [µM] | TGI [2] [µM] | GI50 [3] [µM] | TGI [3] [µM] | GI50 [4] [µM] | TGI [4] [µM] | GI50 [5] [µM] | TGI [5] [µM] | GI50 [6] [µM] | TGI [6] [µM] | GI50 [7] [µM] | TGI [7] [µM] | GI50 [8] [µM] | TGI [8] [µM] | GI50 [9] [µM] | TGI [9] [µM] | TGI [10] [µM] | GI50 [10] [µM]
COC(=O)C1=C(O)C(C(=O)OC)[C@@]2(O)[C@@H](C(=O)OC)C(c3ccccc3C(F)(F)F)C[C@@H]1[C@@H]2C(=O)OC (some centres undefined) | 6.39 | 20.3 | 20.4 | 36.4 | 2.71 | 6.73 | 3.05 | 7.62 | 10.4 | 27 | 0.175 | 2.27 | 13 | 26.5 | 17.4 | 33.3 | 2.15 | 9.52 | – | –
CC(=O)OCC1OC(n2c(-c3ccc(N)cc3)cc(-c3ccco3)c(C#N)c2=O)C(OC(C)=O)C(OC(C)=O)C1OC(C)=O (centres undefined) | – | > 50 | – | > 50 | – | > 50 | – | > 50 | – | > 50 | – | > 50 | – | > 50 | – | > 50 | – | – | – | –
CCCCCCCCOCC(O)COC (centres undefined) | – | > 100 | – | > 100 | – | > 100 | – | > 100 | – | > 100 | – | > 100 | – | > 100 | – | > 100 | – | > 100 | > 100 | –
O=C(O)C(=O)/C=C\c1ccc(Cl)cc1 | – | > 100 | – | > 100 | – | > 100 | – | > 100 | – | > 100 | – | > 100 | – | > 100 | – | > 100 | – | > 100 | > 100 | –
O=C(NCCc1ccccc1)C(c1csc2ccccc12)N(C(=O)CCl)c1ccc(-c2cnco2)cc1 (centres undefined) | 1.63 | 3.17 | 0.347 | 1.07 | 0.096 | 0.487 | 0.62 | 1.48 | 0.393 | 1.64 | 1.56 | 3.28 | 0.0173 | 0.0354 | 0.682 | 2.07 | 0.509 | > 20.7 | 3.43 | 1.07
O=C(CCCCCn1c2ccccc2c2c3c(c4c5ccccc5[nH]c4c21)C(=O)N(O)C3=O)N1CCOCC1 | 3.19 | 7.76 | 2.77 | 6.74 | 2.13 | 4.81 | 1.29 | 2.7 | 4.22 | 24 | 2.3 | 5.65 | 1.6 | 4.28 | 3.49 | > 100 | 2.11 | 6.23 | 6.51 | 2.58
CC(C)n1c2c(c3ccccc3c1=O)C(=O)c1ccccc1-2 | – | > 100 | – | > 100 | – | > 100 | – | > 100 | – | > 100 | – | > 100 | – | > 100 | – | > 100 | – | > 100 | > 100 | –
CC(=O)OC1CC[C@@]2(C)C(CC(OC3OC(CO)C(O)C(O)C3O)[C@]3(C)C2CCC24CC23CC[C@H]4C(C)CC(O)[C@@H](O)C(C)(C)O)C1(C)C (some centres undefined) | – | 24.4 | – | 40.1 | – | > 50 | – | 45.3 | – | > 50 | – | 17.1 | – | > 50 | – | > 50 | – | 43.4 | 48.5 | –
COc1ccc(OC)c(-c2cc(-c3ccc(Cl)cc3)nn2-c2ccc(S(N)(=O)=O)cc2)c1 | 3.98 | 16.4 | – | – | 11.2 | 29.3 | 13.9 | 29.7 | 7.84 | 51.9 | – | – | 21.8 | > 100 | 12.8 | 28.7 | 2.07 | 4.87 | 26.1 | 11.4
CC(C)(C)NC(=O)C12C3C4C1C1C2C3C41I (centres undefined) | – | > 100 | – | – | – | > 100 | – | > 100 | – | > 100 | – | > 100 | – | > 100 | – | > 100 | – | > 100 | > 100 | –
O=C1/C=C(/c2ccc(O)cc2)[C@H](O)Cc2ccc(OC3OC(CO)C(O)C(O)C3O)cc2O1 (some centres undefined) (tested in a mixture with another compound) | – | > 100 | – | > 100 | – | > 100 | – | > 100 | – | > 100 | – | > 100 | – | > 100 | – | > 100 | – | – | > 100 | –
COc1ccc(/C(C#N)=C/c2nc3c(N4CCOCC4)nc(Cl)nc3n2C)cc1OC | 1.29 | 2.87 | < 0.01 | 2.53 | < 0.01 | 1.38 | < 0.01 | < 0.01 | < 0.01 | 1.92 | 0.0172 | 0.0424 | < 0.01 | 1.65 | < 0.0171 | 2.32 | < 0.01 | 11.4 | – | –
NC(N)=Nc1nc2cc(N)ccc2o1 | – | > 100 | – | > 100 | – | > 100 | – | > 100 | – | > 100 | – | – | – | > 100 | – | – | – | > 100 | > 100 | –
COc1ccc(-c2cc(-c3ccco3)c(C#N)c(=O)n2C2OC(OC(=O)c3ccccc3)C(OC(=O)c3ccccc3)C2OC(=O)c2ccccc2)cc1 (centres undefined) | – | > 100 | – | > 100 | – | > 100 | – | > 100 | – | – | – | > 100 | – | > 100 | – | > 100 | – | > 100 | > 100 | –
COC(=O)c1ccc2n[se]nc2c1 | – | > 100 | – | > 100 | – | > 100 | – | > 100 | – | > 100 | – | – | – | > 100 | – | > 100 | – | > 100 | – | –
O=c1c2ccccc2oc2nccnc12 | – | > 100 | – | > 100 | – | > 100 | – | > 100 | – | > 100 | – | > 100 | – | > 100 | – | > 100 | – | > 100 | – | –
CCSc1sc(-c2ccc(C)cc2)nc1[P+](c1ccccc1)(c1ccccc1)c1ccccc1 | 0.294 | 1.05 | 0.316 | 1.38 | 0.488 | 1.35 | 0.161 | 0.597 | – | – | – | – | 0.254 | 0.866 | 0.376 | 1.56 | 0.195 | 1.44 | – | –
COc1cc2c(cc1OC)[C@@H]1[C@H](C2=O)c2ccc([N+](=O)[O-])cc2C(=O)N1CCCBr | 0.0737 | 0.893 | < 0.0277 | 0.709 | < 0.01 | – | 0.666 | 2.14 | – | 4.02 | – | – | – | – | 1.64 | > 100 | 1.26 | > 100 | 1.24 | 0.281
O=C1/C(=C/c2ccc(F)cc2)CN(Cc2cn(CCNc3ccnc4cc(Cl)ccc34)nn2)C/C1=C\c1ccc(F)cc1 | 1.78 | 3.35 | 2.07 | 3.76 | – | – | 1.11 | 2.35 | 1.88 | 4.23 | 1.5 | 2.88 | 1.37 | 2.7 | 1.92 | 3.71 | 0.301 | 1.58 | 4.24 | 1.91
N#CC1(Cc2ccccc2Cl)c2ccccc2C=CN1C(=O)c1ccccc1 (centres undefined) | – | > 100 | – | > 100 | – | – | – | > 100 | – | > 100 | – | > 100 | – | > 100 | – | > 100 | – | > 100 | > 100 | –
O=C1CCc2cc([N+](=O)[O-])ccc2O1 | – | > 100 | – | > 100 | – | > 100 | – | > 100 | – | > 100 | – | > 100 | – | – | – | > 100 | – | > 100 | > 100 | –
Clc1cc(Cl)c2n[se]nc2c1 | – | > 100 | – | > 100 | – | > 100 | – | > 100 | – | > 100 | – | – | – | > 100 | – | > 100 | – | > 100 | – | –
COc1cc(OC)cc(-c2n[nH]nc2-c2ccc3c(c2)OCO3)c1 | 18.2 | 70.4 | 0.336 | > 100 | 0.316 | > 100 | 0.343 | 9.32 | 0.289 | 50.9 | – | – | 0.661 | 72.7 | 1.47 | > 100 | 0.0496 | > 100 | > 100 | 5.15
Cc1cccc2c1NC(c1c(C)[nH]c3ccccc13)C2 (centres undefined) | – | > 100 | – | > 100 | – | – | – | > 100 | – | > 100 | – | > 100 | – | > 100 | – | > 100 | – | > 100 | > 100 | –
COc1ccc2c(c1)C(CCN)C(=O)N2 (centres undefined) | – | > 100 | – | > 100 | – | > 100 | – | > 100 | – | > 100 | – | > 100 | – | – | – | > 100 | – | > 100 | – | –
Nc1ccc(Cl)cc1.Nc1ccc(Cl)cc1.Nc1ccc(Cl)cc1.O=C([O-])C(=O)[O-].O=C([O-])C(=O)[O-].[H+].[Ru+5] | – | > 100 | 0.691 | – | – | > 100 | > 82.1 | > 100 | 0.351 | > 100 | 0.0362 | 0.169 | 0.927 | > 26.8 | – | – | < 0.0169 | > 100 | > 100 | 99.4
